Assay results taken from patent publication US9540299B2, “MTOR-independent activator of TFEB for autophagy enhancement and uses thereof” (Hong Kong Baptist University, priority 2015, dated 2017).

What was measured:
N2a cells = assay: LysoTracker Red staining of N2a cells (lysosomal pH); format: cell-based, mouse; details: 1 μM, 12 hours
Procedure: N2a cells are treated with E4 (1 μM) in the presence or absence of lysosome inhibitor CQ or Torin 1 for 12 hours, the cells are loaded with LysoTracker Red, followed by taking pictures under a fluorescence microscope (FIG. 26A). The relative fluorescent intensity is quantified by using image J software (FIG. 26B). Quantification data are presented as the mean±SD from three independent experiments (low panel). **p<0.01 vs. the control (0.1% DMSO). ## p<0.05 vs. the relative absence of CQ group.
After transiently knockdown the expression of TFEB, N2a cells are treated with E4 (1 μM) for 12 hours, lysosomal activities are then detected by LysoTracker Red staining (FIG. 30A). Quantification data (FIG. 30B) are presented as the mean±SD from three independent experiments. **p<0.01 vs. the control (0.1% DMSO). ## p<0.05 vs. the relative Si-NT group.
N2a cells are transfected with mouse Tfeb siRNA and the non-target siRNA using Lipofectamine RNAiMAX (13778030, Invitrogen) and incubated at 37° C. for 72 hours.
The lysosomal pH is estimated using LysoTracker Red following manufacturer's instructions. The fluorescence intensity is observed under a DeltaVision Deconvolution Microscope (GE Healthcare) and representative cells are selected and photographed. Quantification data are acquired using ImageJ software.

[1] = rat, in vivo, po
Procedure: All animal care and procedures are approved by the Hong Kong Baptist University Committee on the Use of Human and Animal Subjects in Teaching and Research. Adult male Sprague-Dawley (SD) rats weighted 350-400 g are maintained on ad libitum food and water with a 12-hour light/dark cycle in a controlled environment. For short-term treatment, rats (n=6 per group) are orally administered by gavage with C1 (10 mg/kg and 25 mg/kg per day) or vehicle (1% sodium carbonyl methylcellulose (CMC-Na)) for 24 h. For chronic treatment, C1 (10 mg/kg per day) is given by gavage to rats for 21 days. At the end of each treatment, an additional dosage of C1 is given for 6 h before the rats are killed. Livers and major brain regions dissected are snap-frozen in liquid nitrogen.
The average concentration of C1 in brain tissues is 0.26±0.063 μg/g determined by HPLC after oral administration of C1 (10 mg/kg) for 6 h.
Rats receive oral administration of C1 (10 mg/kg) for 21 days. Another dose of C1 is given for 6 h and the average concentration of C1 in brain tissues is 0.849±0.302 μg/g. Then the autophagy markers in the livers and brains are analyzed. Chronic C1 treatment increases the levels of LC3-II in the livers (FIGS. 11 A and B). […] During the treatment procedure, no changes in body weight or behavior abnormalities are observed.

[2] = Acute toxicity by single-dose intravenous tail vein injection; details: Sprague-Dawley, rat, in vivo, rats, read-out: medium lethal dose (LD50)
[3] = molecular target: T1, MTOR-TFEB-YWHA interaction (Homo sapiens, UniProt P19484); assay: Co-immunoprecipitation of MTOR and YWHA with Flag-TFEB in Hela cells; format: cell-based; details: Hela 3×Flag-TFEB cells, 1 μM, 12 h
T1 construct: expressed in transfected cells; host or cells: HeLa cells stably expressing 3×Flag-TFEB; MTOR and YWHA are endogenous
T1 sequence (P19484 1-476): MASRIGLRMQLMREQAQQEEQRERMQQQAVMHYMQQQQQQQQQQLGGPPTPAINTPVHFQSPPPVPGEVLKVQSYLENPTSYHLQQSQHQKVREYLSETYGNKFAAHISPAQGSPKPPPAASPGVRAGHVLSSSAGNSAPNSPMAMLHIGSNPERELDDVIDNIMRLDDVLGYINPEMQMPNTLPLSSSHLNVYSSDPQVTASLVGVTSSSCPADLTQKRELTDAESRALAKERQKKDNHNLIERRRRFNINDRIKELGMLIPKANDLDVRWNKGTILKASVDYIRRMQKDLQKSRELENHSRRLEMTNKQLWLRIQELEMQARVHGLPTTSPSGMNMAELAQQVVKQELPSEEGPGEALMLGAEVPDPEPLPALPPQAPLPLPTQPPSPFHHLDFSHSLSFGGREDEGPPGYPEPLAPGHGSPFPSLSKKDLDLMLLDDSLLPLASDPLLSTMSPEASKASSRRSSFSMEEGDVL
Procedure: Hela cells stably expressing 3×Flag-TFEB are treated with C1 (1 μM) for 12 h. Endogenous MTOR and YWHA are co-immunoprecipitated with Flag-TFEB. Western blots and levels of immunoprecipitated MTOR (FIG. 5A) and YWHA (FIG. 5B) normalized to their corresponding levels in whole cell lysates (WCL). Data are presented as the mean±SD from three independent experiments. *p<0.05 vs. the control. WB—western blot and IP—immunoprecipitation. Cells are lysed on ice in 1× Lysis Buffer (9803, Life Technologies) with complete protease inhibitor mixture (04693124001, Roche Applied Science). Animal tissues are homogenized in nine volumes of ice-cold PBS supplemented with protease inhibitors. Cytosolic and nuclear fractions are isolated using protocols similar to those described previously. Anti-Flag or TFEB antibody is added to the whole cell lysates and Dynabeads® Protein G (10003D, Life Technologies) is used for immunoprecipitation. Proteins are separated by 10-15% SDS-PAGE, transferred, and blotted with the antibodies described. The blots are then incubated with secondary antibodies or the Clean-Blot IP Detection Reagent (21230, Thermo Scientific) at room temperature for 1 h. The protein signals are detected by ECL kit (32106, Pierce) and quantified using ImageJ software. Hela cells stably expressing 3×Flag-TFEB are treated with C1 (1 μM) for 12 h. […]

SMILES | LysoTracker Red fluorescent intensity compared with vehicle control (N2a cells) | induced increase in LysoTracker Red fluorescence intensity on co-treatment with CQ (N2a cells; with CQ) | passage of the blood-brain barrier (BBB) [1] | LD50 [2] | MTOR and YWHA coimmunoprecipitated with Flag-TFEB compared with control [3] | levels of endogenous MTOR and YWHA [3]
O=C(/C=C/c1ccccc1I)/C=C/c1ccccc1I [E4] | significantly increases | abolishes |  |  |  | 
COc1ccccc1/C=C/C(=O)/C=C/c1ccccc1OC [C1, 1,5-bis(2-methoxyphenyl)penta-1,4-dien-3-one] |  |  | can pass | 175 mg/kg | decreased | does not affect
